Laboratory results from US11135196B1, “Pharmaceutical composition and its use to inhibit membrane ACE2 expression” (priority 2020, dated 2021).

Experiments:
ACE2 receptor [1] = test: ACE2 ELISA assay in Human Small Airways Epithelial Cells (SAEC), 6 days; conditions: for decrease of ACE2 expression: FIG. 5A
Protocol: Human Small Airways Epithelial Cells (SAEC), purchased from ATCC, (Manassas, Va., USA) were cultured in Airways Epithelial Cells growth medium (ATCC) in plastic flasks at 37° C. and 5% CO2. For the experiments, the cells (passage 5-7) were plated to collagen-covered 96-well plates in 100 μL/well growth medium and were grown to confluent layer for 4 to 7 days.
For the experiments, cells were supplemented with indicated doses of tested compounds in 100 μL/well of cell growth medium for 6 days with fresh media supplementations every 2 to 3 days. […] Culture plate wells were washed twice with phosphate buffered saline (PBS) and fixed with 3% formaldehyde/0.5% Triton X-100/PBS solution for 1 hour at 4° C., then washed 4 times with PBS. Two-hundred microliter of 1% bovine serum albumin-BSA (Sigma-Aldrich, St. Louis, Mo., USA) in PBS was added and the plate was incubated at 4° C. overnight. Rabbit polyclonal anti-ACE-2 antibodies (Sigma Aldrich, St. Louis, Mo., USA) were added in 100 μL/well 1% BSA/PBS solution for 1.5 hours incubation at room temperature (RT). After 3 wash cycles with 0.1% BSA/PBS wells were supplied with 100 μL/well of anti-rabbit IgG antibodies conjugated with horse radish peroxidase (HRP, Sigma, St. Louis, Mo., USA) for 1 hour at RT. After 3 wash cycles with 0.1% BSA/PBS the HRP activity retained was determined by incubation with 100 μL/well TMB substrate solution (Sigma-Aldrich, St. Louis, Mo., USA) for 20 minutes. at RT, followed by the addition of 50 μL/well of 1N H2504 and optical density measurement at 450 nm with microplate reader (Molecular Devices, San Jose, Calif., USA).
Results are expressed as a percentage of experimental addition—free control (mean±SD, n=6). Non-specific control (wells incubated without anti-ACE2 antibodies) mean value (n=6) was subtracted from all sample values.

ACE2 receptor [2] = test: ACE-2 ELISA assay in Human Aortic Endothelial Cells, 7 days supplementation; type: cell-based; conditions: 50-100 mcM, FIG. 1
Protocol: Cell supplementation with ascorbic acid: Cells were supplemented with indicated doses of ascorbic acid (Sigma) in EGM-2 for 7 days with six repetitions for each dose. Experimental medium was changed every 2-3 days with freshly prepared ascorbic acid solution in EGM-2.
Mouse monoclonal anti ACE-2 antibody (Santa Cruz Biotechnology) was added in 100 mcl 1% BSA/PBS for 1.5 h incubation at room temperature (RT). […] After three wash cycles with 0.1% BSA/PBS retained HRP activity was determined by incubation 100 mcl TMB substrate solution (Sigma) for 20 min at RT and addition of 50 mcl of 1N H2SO4 by measuring optical density at 450 nm with micro plate reader (Molecular Devices). Results are expressed as percentage of ascorbate-free Control (mean+/−SD, n=6).

ACE2 protein [3] = test: Western blot of ACE2 protein expression in SAEC; conditions: 1.0 mM, 6 days
Protocol: (§2) Human Small Airways Epithelial Cells (SAEC), purchased from ATCC, (Manassas, Va., USA) were cultured in Airways Epithelial Cells growth medium (ATCC) in plastic flasks at 37° C. and 5% CO2. For the experiments, the cells (passage 5-7) were plated to collagen-covered 96-well plates in 100 μL/well growth medium and were grown to confluent layer for 4 to 7 days. Human Microvascular Endothelial Cells isolated from lung (HMEC), purchased from Lonza, (Hayward, Calif., USA) were cultured in EGM-2 MV growth medium (Lonza) in plastic flasks at 37° C. and 5% CO2. […]
(§3) Western blot: SAEC and HMEC were plated on 6-well plates and supplemented with 0.3, 0.6, 0.8, and 1 mM ascorbic acid, respectively. […] The protein concentration was measured by the Dc protein assay (Bio-Rad, Hercules, Calif., USA). Fifty microgram per well of protein was separated on 8% to 16% gradient SDS-PAGE gels (ie, Tris-based electrophoresis using standard Laemmle's method without (3-ME addition to sample buffer) and transferred to a PVDF membrane. Proteins were detected with commercially available anti-ACE-2 monoclonal antibody diluted 1:250 (R&D, Minneapolis, Minn., USA) and anti-β-actin antibody as a loading control (Cell Signaling, Danvers, Mass., USA).

ACE2 mRNA [4] = test: qRT-PCR of ACE2 gene expression in HMEC; type: cell-based, human; conditions: 1.0 mM, 6 days, normalised to β-actin
Protocol: (§1) After 6 days, total RNA was isolated using RNeasy Plus Mini Kit (Qiagen, Germantown, Md., USA). Next, 2500 ng of each isolate was transcribed in cDNA using RT^2 HT First Strand Kit (Qiagen, Germantown, Md., USA) and subjected to qRTPCR using specific primers for ACE2 (forward primer, SEQ ID. NO. 1-5′-[…] -3′; and reverse primer, SEQ ID. NO. 2-5′-[…] -3) and β-actin (forward primer, SEQ ID. NO. 3-5′-[…] -3′; and reverse primer, SEQ ID. NO. 4-5′-[…] -3′). The PCR was performed with a QuantiTect SYBR® Green PCR Kit as the source of 2.5 mM Mg2+, deoxynucleotides and HotStarTaq DNA polymerase, in addition to each primer used at a concentration of 0.3 μM in a 50 μL qPCR mixture (Qiagen, Germantown, Md., USA) in a BioRad CFX instrument (BioRad, Hercules, Calif., USA). The qPCR cycler conditions were programmed according to the manufacturer's recommendations and were as follows: an activation step at 95° C. for 15 minutes, 40 cycles of: denaturation at 94° C. for 15 seconds, annealing at 60° C. for 30 seconds, and extension at 72° C. for 30 seconds. To verify the specificity and identity of the qPCR product, melting curve analyses were performed. The amount of β-actin cDNA was used to normalize the sample amounts used for determinations. All samples were tested in duplicate PCR reactions and the mean of the reactions was used for calculating the expression levels.

ACE2 mRNA [5] = test: qRT-PCR of ACE2 gene expression in SAEC; type: cell-based, human; conditions: 1.0 mM, 6 days, normalised to β-actin
Protocol: as §1

ACE2 protein [6] = test: Western blot of ACE2 protein expression in HMEC; conditions: 1.0 mM, 6 days
Protocol: as §2, §3

SAEC = test: Cytotoxic effects on SAEC; type: cell-based, human

C=CCCCCCCCCC(=O)O [10-undecanoic acid]
decrease of ACE2 expression, individual effect (ACE2 receptor [1]; concentration not given, FIG. 9): 18%

O=c1cc(-c2ccccc2)oc2cc(O)c(O)c(O)c12 [baicalein]
inhibition of ACE2 expression, used individually (ACE2 receptor [1]; 25 μM, compared to no ascorbate control, FIG. 7): 75%

O=C1O[C@H]([C@@H](O)CO)C(O)=C1O [ascorbic acid]
suppression of the expression of the ACE2 receptor (ACE2 receptor [2]): over 50%
reduction of ACE2 protein (Western blot) (ACE2 protein [3]): 55%
reduction of ACE2 protein (Western blot) (ACE2 protein [3]; listed as ascorbate): significantly lower
ACE2 gene expression decreased by (fold) (ACE2 mRNA [4]): 0.54 fold
ACE2 gene expression decreased by (fold) (ACE2 mRNA [5]): 0.61 fold
reduction of ACE2 protein (Western blot) (ACE2 protein [6]): 60%
reduction of ACE2 protein (Western blot) (ACE2 protein [6]; listed as ascorbate): significantly lower
decrease of ACE2 expression (ACE2 receptor [1]; 0.6 mM): about 18%
decrease of ACE2 expression (ACE2 receptor [1]; 1.0 mM): 27%
decrease of membrane expression of ACE2 (ACE2 receptor [1]; 800 mcM, FIG. 4): 27%

O=c1c(O)cc([C@H]2Oc3cc(O)cc(O)c3C[C@H]2O)cc2c([C@H]3Oc4cc(O)cc(O)c4C[C@H]3O)cc(O)c(O)c12 [Theaflavin]
inhibition of ACE2 expression, used individually (ACE2 receptor [1]; 33 μg/mL and 50 μM respectively, FIG. 10): about 50%

CC(=O)N[C@@H](CS)C(=O)O [NAC]
inhibition of ACE2 expression, used individually (ACE2 receptor [1]; 2 mM): 18%

CCCCCCCCCCCCCCCC(=O)OC[C@H](O)[C@H]1OC(=O)C(O)=C1O [ascorbyl palmitate]
concentrations showing cytotoxic effects (SAEC): > 100 µM
inhibition of ACE2 expression (ACE2 receptor [1]; 75 μM, FIG. 5B): 50%
